For data set [1] the following is noted: i.g. (10 mg/kg).
In data set [2] the test system is complement alternative pathway. Nature of the data set: Test of inhibitory effect on the complement alternative pathway (IBL alternative pathway kit, LPS-coated plate). The data set is classed as biochemical, healthy volunteers. Conditions: inhibiting the alternative pathway; diluted serum, 30 min pretreatment, 1 h at 37°C. On the procedure: The inhibitory effect of the compounds on the complement alternative pathway was detected using the IBL alternative pathway kit (COMPL AP330 RUO). Serum from healthy volunteers was collected and 1 portion was diluted with a buffer of 20 mM EDTA in gelatin (0.15 mM CaCl2, 141 mM NaCl, 4.5 mM MgCl2, 4.2 mM HEPES, and 0.1% gelatin at pH 7.4) to 50% (v/v), and 1 portion was diluted to 50% (v/v) with a buffer of 20 mM EGTA in gelatin. The compounds were prepared in DMSO to a working solution 100 times the final concentration. Before use, 50% of the above serum was diluted 1/18 with an AP diluent in the kit. 1 part of the compound working solution (v/v) or DMSO (positive control PC) was added to 99 parts of the diluted serum containing EGTA for pretreatment for 30 min, and 1 part of DMSO (v/v) was added to 99 parts of the diluted serum containing EDTA, as negative control (NC). The serum pretreated with the above compounds (or DMSO) was added at […] to an LPS-coated 96-well plate and incubated at 37°C for 1 h, and the plate was washed 3 times with washing solution in the kit, and the conjugated chromogenic substrate was added according to the instruction in the kit, and the absorbance was read at 405 nm with a microplate reader. The inhibitory activity of the compounds on alternative pathway was calculated using the following formula. […]

For the molecule `CCO[C@H]1CCN(Cc2c(OC)cc(C)c3[nH]ccc23)[C@H](c2ccc(C(=O)O)cc2)C1` [LNP023], in data set [1] (rat plasma), the “AUC0-24 h” value was determined as 9867 ng·h/mL, the “Cmax” value stood at 867 ng/mL, the “T1/2” value was 3.39 h and the “Tmax” value stood at 3.5 h. Besides, in data set [1] (rats), the F% is recorded as 49%.
For the molecule `[2H]C([2H])([2H])Oc1cc(C)c2[nH]ccc2c1CN1CC[C@@H](C2CC2)C[C@H]1c1ccc(C(=O)O)cc1` [Trifluoroacetate of compound 1], in data set [2], the IC50 is less than 200 nM.
On the same count and under the same terms, the figure for `COc1cc(C)c2[nH]ccc2c1CN1CC[C@@H](C2CC2)C[C@H]1c1ccc(C(=O)O)cc1` [Trifluoroacetate of compound 2] is less than 200 nM.

As a reminder, the Cmax is the peak of the concentration-time curve. As a reminder, the Tmax is the time from dosing to the highest level. In general, IC50 refers to the point on the concentration scale where inhibition reaches its midpoint.

Values taken from EP4670719A1, “PHARMACEUTICAL COMPOSITION OF BENZO NITROGEN HETEROAROMATIC RING DERIVATIVE AND USE THEREOF IN MEDICINE” (Haisco Pharmaceutical Group Co., Ltd., priority 2023, dated 2024).
